This is an account of results in patent publication US20060194235A1, “HLJ1 gene expression” (priority 2005, published 2006).

Series [1] concerns HLJ1. As to the kind of experiment: siRNA knock-down of endogenous HLJ1 in the YY1 transfected cell line PCY3. Type of series: cell-based, human. Particulars: PCY3 cells. The source says: Inhibiting the ability of transfected cells to express HLJ1 can restore their invasive capacity. Small inhibiting RNA (siRNA) specific for HLJ1 decreased the endogenous HLJ1 RNA level in the YY1 transfected cell line, PCY3.
Two siRNA sequences were synthesized according to standard protocols (68). The sequence of HLJ1-A was […]. The sequence of HLJ1-D was […]. HLJ1-A and HLJ1-D reduced its expression by 64%. […] A negative control, scrambled siRNA, had no significant effect on HLJ1 expression or invasive capacity.

In series [2] the test system is PCY3 cells. As to the kind of experiment: In vitro Matrigel invasion assay. Type of series: cell-based, human. Particulars: siRNA treated. As for the experimental part:
The metastatic potential of tumors depends, in part, on the ability of the tumor cells to invade through a basement membrane and migrate to distant sites. The ability of cells transfected with HLJ1 to penetrate a Matrigel™ membrane using an in vitro assay, which is a modified Boyden chamber assay, as described in Example 15, was determined as an index of the metastatic potential of these cells. The YY1 transfectant PCY3, which expressed a high level of HLJ1, reduced cell invasion capability to about 56% and about 61% of the levels of CL1-0 and mock transfectants, respectively (68).
In vitro Matrigel™ invasion assays were performed in 6.5-mm transwell chambers (8 μm pore size; Costar®). The transwell filters in the chambers were coated with Matrigel™ (Becton Dickinson, Franklin Lakes, N.J.) (58). After a 16 or 24 h incubation, the filter was gently removed from the chamber, and the noninvasive cells on the upper surface were removed by wiping with a cotton swab. The cells that invaded the Matrigel™ and attached to the lower surface of the filter were fixed with methanol and stained with Giemza solution (Sigma, St. Louis, Mo.). The number of cells attached to the lower surface of the polycarbonate filter was counted under a light microscope at 200× magnification. Five fields of adherent cells were randomly counted in each well and the results were numerically averaged. […]

For the substance “HLJ1-D: siRNA specific for HLJ1, sequence AAACGCTGATGGAAGGAGTTA (other strand not given here)”, the “reduction of HLJ1 expression” value in series [1] worked out at 64%. Further, in series [2], the “ability of PCY3 cells to invade through Matrigel, compared to PCC2 cells” value turned out to be 87%.
